Data on 2 compounds can be found in patent US20180250261A1, “METHOD FOR TREATING CANCER WITH A STAT3 PATHWAY INHIBITOR AND KINASE INHIBITOR” (BOSTON BIOMEDICAL, INC., priority 2015, published 2018).

For test [1], the target named is T1, STK33 (Homo sapiens, UniProt Q9BYT3).
T1 construct: from tissue; host or cells: human SW480 colon cancer xenograft tumours grown in female nude mice
Kind of test: immunofluorescence staining of SW480 xenograft tissue, STK33. The test is classed as in vivo. Particulars: nude mice, oral daily, 14 doses, Compound A 100 mg/kg, Compound B 50 mg/kg, FIG. 6B. The protocol:
(§1) The effect of a treatment combination of Compound A and Compound B on the levels of various pharmacodynamic (PD) markers for the agents in vivo was studied. A mouse xenograft model of human colon cancer (SW480) was used.
(§2) Levels of STK33 and Nanog were examined using immunofluorescence staining of the xenograft tissue. Female nude mice were inoculated subcutaneously with 8×10^6 human SW480 colon cancer cells. Animals were treated orally daily with vehicle, Compound A (100 mg/kg), Compound B (50 mg/kg), or Compound A and Compound B (100 mg/kg and 50 mg/kg, respectively) for a total of 14 doses. At the end of treatment, the tumors were harvested from euthanized mice. Part of the dissected tumors were fixed overnight in 3.7% neutral buffered formaldehyde at 4° C., and then paraffin embedded, cut to four micron sections, and affixed onto positively charged slides. After being baked and deparaffinized, the slides with tumor or control tissues were incubated in 10mM pH6.0 sodium citrate solution for antigen retrieval at 98° C. […] After being mounted with ProLong mounting medium containing DAPI (Invitrogen), the slides were examined on a Zeiss Axis Imager M2 upright fluorescence microscope with a 20× objective and analyzed with Zen software.

Test [2] relates to Nanog. Kind of test: immunofluorescence staining of SW480 xenograft tissue, Nanog. It is filed as in vivo, human. The settings on record: nude mice, oral daily, 14 doses, Compound A 100 mg/kg, Compound B 50 mg/kg, FIG. 6B. The protocol: as §1, §2
(Xenograft models place foreign cells or tissue in a host animal.)

Test [3] addresses T2, p-STAT3 (Homo sapiens, UniProt P40763).
T2 construct: from tissue; host or cells: human SW480 colon cancer xenograft tumours grown in female nude mice
Kind of test: immunofluorescence staining of SW480 xenograft tissue, p-STAT3. The test is classed as in vivo. The settings on record: nude mice, oral daily, 14 doses, Compound A 100 mg/kg, Compound B 50 mg/kg, FIG. 6A.

Test [4] concerns STAT3 pathway. The settings on record: according to U.S. Pat. No. 8,877,803; read-out: STAT3 pathway activity, cellular IC50; cited from earlier work.

Molecules are shown by their SMILES.

T1 sequence (Q9BYT3 whole entry): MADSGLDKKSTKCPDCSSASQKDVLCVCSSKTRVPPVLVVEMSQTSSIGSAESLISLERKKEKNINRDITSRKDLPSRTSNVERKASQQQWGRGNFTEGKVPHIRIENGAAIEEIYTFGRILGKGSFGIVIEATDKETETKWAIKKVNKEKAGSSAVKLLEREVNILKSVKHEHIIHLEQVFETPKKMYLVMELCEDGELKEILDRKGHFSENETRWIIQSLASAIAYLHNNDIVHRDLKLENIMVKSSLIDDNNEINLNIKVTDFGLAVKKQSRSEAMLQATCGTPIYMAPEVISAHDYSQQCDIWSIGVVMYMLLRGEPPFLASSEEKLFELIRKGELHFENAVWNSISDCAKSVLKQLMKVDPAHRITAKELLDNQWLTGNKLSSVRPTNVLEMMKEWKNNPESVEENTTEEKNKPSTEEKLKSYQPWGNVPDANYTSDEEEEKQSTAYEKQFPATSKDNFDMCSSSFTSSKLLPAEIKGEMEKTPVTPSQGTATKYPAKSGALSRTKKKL
T2 sequence (P40763 whole entry): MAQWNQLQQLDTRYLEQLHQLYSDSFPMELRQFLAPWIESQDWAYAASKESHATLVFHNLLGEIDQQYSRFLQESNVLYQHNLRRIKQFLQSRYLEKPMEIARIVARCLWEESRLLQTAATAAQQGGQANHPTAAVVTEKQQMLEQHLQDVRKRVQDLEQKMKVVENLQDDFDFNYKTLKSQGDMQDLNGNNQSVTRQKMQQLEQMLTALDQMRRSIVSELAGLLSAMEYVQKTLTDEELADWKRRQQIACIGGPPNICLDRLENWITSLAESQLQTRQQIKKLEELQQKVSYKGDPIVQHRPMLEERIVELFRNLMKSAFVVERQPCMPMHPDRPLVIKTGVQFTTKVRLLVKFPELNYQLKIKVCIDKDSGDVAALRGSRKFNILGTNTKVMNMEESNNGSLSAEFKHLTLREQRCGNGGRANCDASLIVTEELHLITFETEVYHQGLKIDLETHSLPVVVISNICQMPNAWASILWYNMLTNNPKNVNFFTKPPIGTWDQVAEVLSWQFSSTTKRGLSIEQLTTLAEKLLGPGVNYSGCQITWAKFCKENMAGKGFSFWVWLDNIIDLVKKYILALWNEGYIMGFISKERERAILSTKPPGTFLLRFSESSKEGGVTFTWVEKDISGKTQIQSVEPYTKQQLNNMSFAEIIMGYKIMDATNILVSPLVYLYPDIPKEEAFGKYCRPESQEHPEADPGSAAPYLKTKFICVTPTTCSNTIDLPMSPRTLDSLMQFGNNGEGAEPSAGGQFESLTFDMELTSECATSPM

Consider `CCN(CC)CCNC(=O)c1c(C)[nH]c(/C=C2\C(=O)Nc3ccc(-c4csc(-c5ccccc5)n4)cc32)c1C` [Compound B], for which, in test [1], the “nuclear levels of STK33 in xenograft tissue” value is recorded as “reduced”. In test [2], the “nuclear levels of Nanog in xenograft tissue” value was “reduced”.

As for `CC(=O)c1cc2c(o1)C(=O)c1ccccc1C2=O` [Compound A, 2-acetylnaphtho[2,3-b]furan-4,9-dione], the “cellular levels of p-STAT3 in xenograft tissue” value in test [3] is recorded as “significantly reduced”. In test [1], the “cytoplasmic levels of STK33 in xenograft tissue” value is “reduced”. The “cytoplasmic levels of Nanog in xenograft tissue” value in test [2] is “reduced”. Besides, the IC50 in test [4] is approximately 250 nM.

For orientation: IC50 means the point on the concentration scale where inhibition reaches its midpoint.
